Experimental data taken from patent US20250051347A1, “BIFUNCTIONAL CHIMERIC HETEROCYCLIC COMPOUND AND USE THEREOF AS ANDROGEN RECEPTOR DEGRADER” (Hinova Pharmaceuticals, Inc., priority 2021, published 2025).

Target: T1, androgen receptor (AR) splicing variant AR-v7 (Homo sapiens, UniProt P10275)
T1 construct: The degradation activity of compounds on AR-v7 in 22RV1 cells; host or cells: 22RV1 cells
T1 sequence (P10275 1-644 isoform P10275-3): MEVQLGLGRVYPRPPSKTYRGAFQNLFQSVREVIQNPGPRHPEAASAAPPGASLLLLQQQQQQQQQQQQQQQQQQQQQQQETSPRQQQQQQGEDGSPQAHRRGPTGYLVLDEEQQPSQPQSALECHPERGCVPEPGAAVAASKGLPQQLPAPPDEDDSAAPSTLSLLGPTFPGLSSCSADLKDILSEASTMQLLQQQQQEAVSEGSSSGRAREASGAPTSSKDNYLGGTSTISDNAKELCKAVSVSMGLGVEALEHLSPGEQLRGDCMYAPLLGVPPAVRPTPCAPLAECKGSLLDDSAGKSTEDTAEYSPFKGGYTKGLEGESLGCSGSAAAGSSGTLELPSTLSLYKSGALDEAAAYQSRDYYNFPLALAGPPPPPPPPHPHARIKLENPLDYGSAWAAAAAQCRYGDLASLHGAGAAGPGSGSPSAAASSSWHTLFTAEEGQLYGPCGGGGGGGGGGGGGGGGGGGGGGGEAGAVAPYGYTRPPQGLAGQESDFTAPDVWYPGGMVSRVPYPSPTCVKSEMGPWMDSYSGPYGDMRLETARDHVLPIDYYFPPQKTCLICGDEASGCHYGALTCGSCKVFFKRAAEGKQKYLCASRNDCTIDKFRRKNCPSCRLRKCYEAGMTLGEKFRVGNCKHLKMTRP
Test: Degradation activity on androgen receptor splicing variant AR-v7 in 22RV1 cells (ELISA)
Assay type: cell-based
Conditions: AR-v7 degradation in 22RV1 cells, 48 h, class symbols

SMILES | DC50 [µM]
CC(C)(c1ccc(OCc2ccnc(N3CC4(COC4)C3)n2)cc1)c1ccc(OC[C@@H]2CCCN2c2ccc3c(c2)C(=O)N(C2CCC(=O)NC2=O)C3=O)cc1 (stereo partly drawn) [Example 313, 5-((S)-2-((4-(2-(4-((2-(2-oxa-6-azaspiro[3.3]heptane-6-yl)pyrimidin-4-yl)methoxy)phenyl)propan-2-yl)phenoxy)methyl)pyrrolidin-1-yl)-2-(2,6-dioxopiperidin-3-yl)isoindolin-1,3-dione] | 0.101 to 1
CC(C)(c1ccc(OCc2ccnc(N3CC4(COC4)C3)n2)cc1)c1ccc(OC[C@H]2CCCN2c2ccc3c(c2)C(=O)N(C2CCC(=O)NC2=O)C3=O)cc1 (stereo partly drawn) [Example 314, 5-((R)-2-((4-(2-(4-((2-(2-oxa-6-azaspiro[3.3]heptan-6-yl)pyrimidin-4-yl)methoxy)phenyl)propan-2-yl)phenoxy)methyl)pyrrolidin-1-yl)-2-(2,6-dioxopiperidin-3-yl)isoindolin-1,3-dione] | 1 to 5
CC(C)(c1ccc(OCc2ccnc(N3CC4(COC4)C3)n2)cc1)c1ccc(O[C@H]2CCC[C@H]2Nc2ccc3c(c2)C(=O)N(C2CCC(=O)NC2=O)C3=O)cc1 (stereo partly drawn) [Example 315] | 1 to 5
CC(C)(c1ccc(Oc2ncc(I)cn2)cc1)c1ccc(O[C@H]2C[C@@H](Nc3ccc4c(c3)C(=O)N(C3CCC(=O)NC3=O)C4=O)C2)cc1 (stereo partly drawn) [Example 316] | 0.011 to 0.1
CC(C)(c1ccc(Oc2ccc(N3CC4(COC4)C3)nn2)cc1)c1ccc(O[C@H]2C[C@@H](Nc3ccc4c(c3)C(=O)N(C3CCC(=O)NC3=O)C4=O)C2)cc1 (stereo partly drawn) [Example 317] | 0.011 to 0.1
CC(C)(c1ccc(CCNc2ccc3c(c2)C(=O)N(C2CCC(=O)NC2=O)C3=O)cc1)c1ccc(OCc2ccnc(N3CC4(COC4)C3)n2)cc1 (stereo not drawn) [Example 318, 5-((4-(2-(4-((2-(2-oxa-6-azaspiro[3.3]heptan-6-yl)pyrimidin-4-yl)methoxy)phenyl)propan-2-yl)phenylethyl)amino)-2-(2,6-dioxopiperidin-3-yl)isoindolin-1,3-dione] | 0.101 to 1
CC(C)(c1ccc(Oc2nc(-n3ccnn3)ccc2F)cc1)c1ccc(O[C@H]2C[C@H](Nc3ccc4c(c3)C(=O)N(C3CCC(=O)NC3=O)C4=O)C2)cc1 (stereo partly drawn) [Example 319] | 0.011 to 0.1
CC(C)(c1ccc(Oc2nc(-n3nccn3)ccc2F)cc1)c1ccc(O[C@H]2C[C@H](Nc3ccc4c(c3)C(=O)N(C3CCC(=O)NC3=O)C4=O)C2)cc1 (stereo partly drawn) [Example 320] | 0.011 to 0.1
CC(C)(c1ccc(Oc2ccc(-n3ccnn3)nn2)cc1)c1ccc(O[C@H]2C[C@H](Nc3ccc4c(c3)C(=O)N(C3CCC(=O)NC3=O)C4=O)C2)cc1 (stereo partly drawn) [Example 325] | 0.011 to 0.1
Cc1nc(-c2ncc(Oc3ccc(C(C)(C)c4ccc(OC[C@@H]5CCN5c5ccc6c(c5)C(=O)N(C5CCC(=O)NC5=O)C6=O)cc4)cc3)cn2)no1 (stereo partly drawn) [Example 326, 2-(2,6-dioxopiperidin-3-yl)-5-((S)-2-((4-(2-(4-((2-(5-methyl-1,2,4-oxadiazol-3-yl)pyrimidin-5-yl)oxy)phenyl)propan-2-yl)phenoxy)methyl)azetidin-1-yl)isoindolin-1,3-dione] | 0.011 to 0.1
Cc1nc(-c2cnc(Oc3ccc(C(C)(C)c4ccc(O[C@H]5C[C@H](Nc6ccc7c(c6)C(=O)N(C6CCC(=O)NC6=O)C7=O)C5)cc4)cc3)nc2)no1 (stereo partly drawn) [Example 327] | 0.011 to 0.1
CC(C)(c1ccc(Oc2ncc(-n3nccn3)cn2)cc1)c1ccc(O[C@H]2C[C@@H](Nc3ccc4c(c3)C(=O)N(C3CCC(=O)NC3=O)C4=O)C2)cc1 (stereo partly drawn) [Example 329] | 0.011 to 0.1
Cc1nc(-c2ccc(Oc3ccc(C(C)(C)c4ccc(O[C@H]5C[C@H](Nc6ccc7c(c6)C(=O)N(C6CCC(=O)NC6=O)C7=O)C5)cc4)cc3)cc2)no1 (stereo partly drawn) [Example 332, 2-(2,6-dioxopiperidin-3-yl)-5-((1r,3r)-3-(4-(2-(4-(4-(5-methyl-1,2,4-oxadiazol-3-yl)phenoxy)phenyl)propan-2-yl)phenoxy)cyclobutyl)aminoisoindolin-1,3-dione] | 0.011 to 0.1
CC(C)(c1ccc(Oc2ccc(-n3nccn3)cc2)cc1)c1ccc(O[C@H]2C[C@H](Nc3ccc4c(c3)C(=O)N(C3CCC(=O)NC3=O)C4=O)C2)cc1 (stereo partly drawn) [Example 334] | 0.011 to 0.1
Cc1nc(-c2ccc(Oc3ccc(C(C)(C)c4ccc(OC5CC(Nc6ccc7c(c6)C(=O)N(C6CCC(=O)N(C)C6=O)C7=O)C5)cc4)cc3)nn2)no1 (stereo not drawn) [Example 335, 5-((1r,3r)-3-(4-(2-(4-((6-(5-methyl-1,2,4-oxadiazol-3-yl)pyridazine-3-yl)oxy)phenyl)propan-2-yl)phenoxy)cyclobutyl)amino)-2-(1-methyl-2,6-dioxopiperidin-3-yl)isoindolin-1,3-dione] | 0.101 to 1
Cc1nc(-c2cnc(Oc3ccc(C(C)(C)c4ccc(O[C@H]5C[C@@H](Nc6ccc7c(c6)C(=O)N(C6CCC(=O)NC6=O)C7=O)C5)cc4)cc3)nc2)no1 (stereo partly drawn) [Example 336] | 0.011 to 0.1
Cc1nc(-c2ccc(Oc3ccc(C(C)(C)c4ccc(O[C@H]5C[C@@H](Nc6ccc7c(c6)C(=O)N(C6CCC(=O)NC6=O)C7=O)C5)cc4)cc3)nn2)no1 (stereo partly drawn) [Example 337] | 0.011 to 0.1
CC(O)c1ncc(Oc2ccc(C(C)(C)c3ccc(OC[C@@H]4CCN4c4ccc5c(c4)C(=O)N(C4CCC(=O)NC4=O)C5=O)cc3)cc2)cn1 (stereo partly drawn) [Example 340] | 0.011 to 0.1
CC(=O)c1ncc(Oc2ccc(C(C)(C)c3ccc(OC[C@@H]4CCN4c4ccc5c(c4)C(=O)N(C4CCC(=O)NC4=O)C5=O)cc3)cc2)cn1 (stereo partly drawn) [Example 341, 5-((S)-2-((4-(2-(4-((2-acetylpyrimidin-5-yl)oxy)phenyl)propan-2-yl)phenoxy)methyl)azetidin-1-yl)-2-(2,6-dioxopiperidin-3-yl)isoindolin-1,3-dione] | 0.011 to 0.1
CC(=O)c1nccc(COc2ccc(C(C)(C)c3ccc(OCCCNc4cccc5c4C(=O)N(C4CCC(=O)NC4=O)C5=O)cc3)cc2)n1 (stereo not drawn) [Example 344, 4-((3-(4-(2-(4-((2-acetylpyrimidin-4-yl)methoxy)phenyl)isopropan-2-yl)phenoxy)propyl)amino)-2-(2,6-dioxopiperidin-3-yl)isoindolin-1,3-dione] | 1 to 5
CC(O)c1nccc(COc2ccc(C(C)(C)c3ccc(OCCCNc4cccc5c4C(=O)N(C4CCC(=O)NC4=O)C5=O)cc3)cc2)n1 (stereo not drawn) [Example 346, 2-(2,6-dioxopiperidin-3-yl)-4-((3-(4-(2-(4-((2-(1-hydroxylethyl)pyrimidin-4-yl)methoxy)phenyl)isopropan-2-yl)phenoxy)propyl)amino)isoindolin-1,3-dione] | 1 to 5
CC(=O)c1cc(COc2ccc(C(C)(C)c3ccc(OCCCCCCCCOCCCCNc4ccc5c(c4)C(=O)N(C4CCC(=O)NC4=O)C5=O)cc3)cc2)ccn1 (stereo not drawn) [Example 347, 5-((4-((8-(4-(2-(4-((2-acetylpyridin-4-yl)methoxy)phenyl)isopropan-2-yl)phenoxy)octyl)oxy)butyl)amino)-2-(2,6-dioxopiperidin-3-yl)isoindolin-1,3-dione] | 1 to 5
CC(=O)c1cc(COc2ccc(C(C)(C)c3ccc(OCCCCCCCCOCCCCNc4cccc5c4C(=O)N(C4CCC(=O)NC4=O)C5=O)cc3)cc2)ccn1 (stereo not drawn) [Example 348, 4-((4-((8-(4-(2-(4-((2-acetylpyridin-4-yl)methoxy)phenyl)isopropan-2-yl)phenoxy)octyl)oxy)butyl)amino)-2-(2,6-dioxopiperidin-3-yl)isoindolin-1,3-dione] | 1 to 5
NC(=O)c1noc(COc2ccc(C3(c4ccc(OCCCNc5ccc6c(c5)C(=O)N(C5CCC(=O)NC5=O)C6=O)cc4)CCC3)cc2)n1 (stereo not drawn) [Example 352, 5-((4-(1-(4-(3-((2-(2,6-dioxopiperidin-3-yl)-1,3-dioxoisoindolin-5-yl)amino)propoxy)phenyl)cyclobutyl)phenoxy)methyl)-1,2,4-oxadiazol-3-carbonylamine] | 0.011 to 0.1
CC(=O)c1nccc(COc2ccc(C(C)(C)c3ccc(O[C@H]4CC[C@H](Nc5ccc6c(c5)C(=O)N(C5CCC(=O)NC5=O)C6=O)CC4)cc3)cc2)n1 (stereo partly drawn) [Example 353, 5-(((1r,4r)-4-(4-(2-(4-((2-acetylpyrimidin-4-yl)methoxy)phenyl)isopropan-2-yl)phenoxy)cyclohexyl)amino)-2-(2,6-dioxopiperidin-3-yl)isoindolin-1,3-dione] | 1 to 5

Same assay, conditions: AR-v7 degradation in 22RV1 cells, 48 h, numeric values

SMILES | DC50 [µM]
CC(=O)c1nccc(COc2ccc(C(C)(C)c3ccc(OCCCCCNc4ccc5c(c4)C(=O)N(C4CCC(=O)NC4=O)C5=O)cc3)cc2)n1 (stereo not drawn) [Example 342, 5-((5-(4-(2-(4-((2-acetylpyrimidin-4-yl)methoxy)phenyl)isopropan-2-yl)phenoxy)pentyl)amino)-2-(2,6-dioxopiperidin-3-yl)isoindolin-1,3-dione] | > 10
CC(=O)c1cccc(COc2ccc(C(C)(C)c3ccc(OCCCCCCCCOCCCCNc4ccc5c(c4)C(=O)N(C4CCC(=O)NC4=O)C5=O)cc3)cc2)n1 (stereo not drawn) [Example 349, 5-((4-((8-(4-(2-(4-((6-acetylpyridin-2-yl)methoxy)phenyl)isopropan-2-yl)phenoxy)octyl)oxy)tert-butyl)amino)-2-(2,6-dioxopiperidin-3-yl)isoindolin-1,3-dione] | > 10
